The source of these data is paper PMC7034945 (RSC Advances, 2019).

Read-outs that look alike come from different tables or passages of the source.

For one data set, the target named is HIV-1 CA monomer (Human immunodeficiency virus type 1 group M subtype B, UniProt P12493). Put plainly: biochemical. The class given is binding, HIV-1 NL4-3.
Another data set is described as follows: in vitro. The conditions noted are these: human.
Another data set deals with HIV-1 NL4-3 virus. Put plainly: Anti-HIV-1 activity, multicycle assay with HIV-1 NL4-3 in TZM-bl cells. The following applies: for anti-HIV-1 activity (in words): at the test concentration. The class given is cell-based.
For data set [1] the following is noted: measured by HPLC.
A further data set concerns TZM-bl cells. The conditions noted are these: uninfected TZM-bl cells, NA = no cytotoxicity at the test concentration.
The mark [2] stands for this setting: Table 2, HIV-1 NL4-3, TZM-bl cells, NA = no anti-HIV-1 activity at the test concentration.
The mark [3] stands for this setting: Table 1, HIV-1 NL4-3, TZM-bl cells, NA = no anti-HIV-1 activity at the test concentration.

On to `COc1ccc(N(C)C(=O)[C@H](Cc2cc(F)cc(F)c2)NC(=O)c2cccc(-c3cn(Cc4ccc([N+](=O)[O-])cc4)nn3)c2)cc1` [II-10c, (S)-N-(3-(3,5-Difluorophenyl)-1-((4-methoxyphenyl)(methyl)amino)-1-oxopropan-2-yl)-3-(1-(4-nitrobenzyl)-1H-1,2,3-triazol-4-yl)benzamide], for which, at HIV-1 CA monomer, the affinity, expressed as Kd, was 2.2 ± 0.23 µM. The Papp A→B in “in vitro” (Caco-2, pH 7.4, Mean Papp A to B, Caco-2, 2 μM, 2 hours, pH 7.40) is less than 0.01 ×10⁻⁶ cm/s; in “in vitro” (Caco-2, pH 7.4, Rank Papp, Caco-2, A to B, permeability class) it was less than 0.5 ×10⁻⁶ cm/s; in “in vitro” (Caco-2, pH 7.4, apparent permeability (Papp), Caco-2 cells), less than 0.01 ×10⁻⁶ cm/s. The molecule further came in with an EC50 in the data set with HIV-1 NL4-3 virus (Human immunodeficiency virus 1, NL43, TZM-bl) of 2.13 ± 0.75 µM. Also, the “anti-HIV-1 activity (in words)” value in the data set with HIV-1 NL4-3 virus (TZM-bl cells) is “exhibited anti-HIV-1 activity at the test concentration”. In the data set with HIV-1 NL4-3 virus (Table 2, TZM-bl cells), the “SI (selectivity index, ratio of CC50/EC50)” value is listed as greater than 16.66.
As for “(S)-N-(1-((4-Methoxyphenyl)(methyl)amino)-1-oxo-3-phenylpropan-2-yl)-3-(1-(3-(thiophen-3-yl)propyl)-1H-1,2,3-triazol-4-yl)benzamide [III-15h]”, the “log P” value in data set [1] was 2.36. The “anti-HIV-1 activity (in words)” value in the data set with HIV-1 NL4-3 virus (TZM-bl cells) is on record as “exhibited anti-HIV-1 activity at the test concentration”. The molecule also yielded an EC50 in the data set on HIV-1 NL4-3 virus (setting [2]) of 9.37 ± 3.18 µM. The 50% cytotoxic concentration (CC50) in the data set on TZM-bl cells (Table 2) is greater than 35.4 µM.
On to “Ethyl (S)-2-(4-(3-((1-((4-methoxyphenyl)(methyl)amino)-1-oxo-3-phenylpropan-2-yl)carbamoyl)phenyl)-1H-1,2,3-triazol-1-yl)acetate [III-15n]”, for which the “anti-HIV-1 activity (in words)” value with HIV-1 NL4-3 virus (TZM-bl cells) is given as “lost anti-HIV-1 activity completely”. This molecule also showed an EC50 with HIV-1 NL4-3 virus (setting [2]) greater than 36 µM. Also, in the data set with TZM-bl cells (Table 2), the CC50 was greater than 36 µM.
On to “Methyl (S)-4-(4-((3-(3,5-difluorophenyl)-1-((4-methoxyphenyl)(methyl)amino)-1-oxopropan-2-yl)carbamoyl)-1H-1,2,3-triazol-1-yl)benzoate [I-8p]”, for which it took 14.2 ± 3.46 µM to reach a half-maximal effect with HIV-1 NL4-3 virus (setting [3]) (EC50). The CC50 in the data set with TZM-bl cells (Table 1) is greater than 18.2 µM.
With “N-((S)-3-(3,5-Difluorophenyl)-1-((4-methoxyphenyl)(methyl)amino)-1-oxopropan-2-yl)-1-(2-(hydroxymethyl)-5-(5-methyl-2,6-dioxo-1,2,3,6-tetrahydropyridin-3-yl)tetrahydrofuran-3-yl)-1H-1,2,3-triazole-4-carboxamide [I-8u]”, the “anti-HIV-1 activity (in words)” value in the data set on HIV-1 NL4-3 virus (TZM-bl cells) was “lost its anti-HIV-1 activity”. Moreover, the EC50 with HIV-1 NL4-3 virus (setting [3]) was greater than 15.6 µM. This molecule also yielded a CC50 in the data set on TZM-bl cells (Table 1) greater than 15.6 µM.
In the data set with HIV-1 NL4-3 virus (setting [2]), “N-((S)-3-(3,5-Difluorophenyl)-1-((4-methoxyphenyl)(methyl)amino)-1-oxopropan-2-yl)-3-(1-(2-(hydroxymethyl)-5-(5-methyl-2,6-dioxo-1,2,3,6-tetrahydropyridin-3-yl)tetrahydrofuran-3-yl)-1H-1,2,3-triazol-4-yl)benzamide [II-10o]” had an EC50 greater than 27.9 µM. The molecule further registered a CC50 in the data set with TZM-bl cells (Table 2) greater than 27.9 µM.
